Results taken from US20200376011A1, “COMPOSITION FOR TREATING CANCER INCLUDING ALGINATE OLIGOSACCHARIDE AS AN ACTIVE INGREDIENT” (BIO3S, INC, priority 2019, published 2020).

System: infiltration of NK cells into ECM (collagen) toward cancer cells (A549)
Assay: NK cell infiltration in tumor microenvironment (TME) simulating organ-on-a-chip model
Type: cell-based
Conditions: co-treatment with NK cells and M5 versus NK cells alone; 48 hours; high-concentration collagen cell barrier model
From the text: The efficacy as a cancer adjuvant was examined by administering tumor microenvironment (TME) simulating models (organ-on-a-chips) with NK cells and the indicator component M5 for the active ingredient of the present disclosure.
NK cells, known to have anti-cancer efficacy as immune cells, were examined for a change in infiltration ability into tumor tissues according to whether or not NK cells were co-administered with M5. The qualification criterion was the infiltration ability of immune cells into ECM, which was determined by the infiltration distance of NK cells and whether or not the number of infiltrating cells was increased. Collagen was selected as a representative type of ECM. The cells were seeded into the chips under a […] collagen condition, and after 6 hours and 48 hours, the infiltration of NK cells toward the medium and cancer cell (A549) channels was observed.
A comparison was made for the infiltration ability of NK cells between the treatment with NK cells alone and the co-treatment with NK cells and M5, for 48 hours in high-concentration collagen cell barrier models.

penta-mannuronic acid sodium salt [M5]
infiltration ability of NK cells into cancer cells: enhanced
